For experiment [1], the target named is human adenosine A2a receptor (Homo sapiens, UniProt P29274). Description: Adenosine A2a Receptor Whole Cell Cyclic AMP Assay. To be noted: HEK293 cells stably expressing human A2a; for A2a @ 1 μM Adenosine (cAMP IC50): in the presence of 1 μM adenosine; for A2a @ 100 μM Adenosine (cAMP IC50): in the presence of 100 μM adenosine.
The target in experiment [2] is T1, human adenosine A2b receptor (Homo sapiens, UniProt P29275).
T1 sequence (P29275 1-332): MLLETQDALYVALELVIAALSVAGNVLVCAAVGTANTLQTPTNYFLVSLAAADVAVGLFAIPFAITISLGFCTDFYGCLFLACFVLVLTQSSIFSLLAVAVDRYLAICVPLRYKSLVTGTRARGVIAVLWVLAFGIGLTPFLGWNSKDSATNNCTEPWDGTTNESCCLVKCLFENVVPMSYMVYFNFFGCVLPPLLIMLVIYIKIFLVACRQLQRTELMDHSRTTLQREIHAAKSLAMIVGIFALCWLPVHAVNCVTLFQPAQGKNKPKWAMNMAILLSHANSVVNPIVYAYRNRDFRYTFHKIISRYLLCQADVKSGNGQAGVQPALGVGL
Description: Adenosine A2b Receptor Whole Cell Cyclic AMP Assay. Particulars: HEK293 cells transfected with human A2b; in the presence of 10 μM adenosine.

The structures appear in SMILES notation.

human adenosine A2a receptor, sequence (P29274 whole entry): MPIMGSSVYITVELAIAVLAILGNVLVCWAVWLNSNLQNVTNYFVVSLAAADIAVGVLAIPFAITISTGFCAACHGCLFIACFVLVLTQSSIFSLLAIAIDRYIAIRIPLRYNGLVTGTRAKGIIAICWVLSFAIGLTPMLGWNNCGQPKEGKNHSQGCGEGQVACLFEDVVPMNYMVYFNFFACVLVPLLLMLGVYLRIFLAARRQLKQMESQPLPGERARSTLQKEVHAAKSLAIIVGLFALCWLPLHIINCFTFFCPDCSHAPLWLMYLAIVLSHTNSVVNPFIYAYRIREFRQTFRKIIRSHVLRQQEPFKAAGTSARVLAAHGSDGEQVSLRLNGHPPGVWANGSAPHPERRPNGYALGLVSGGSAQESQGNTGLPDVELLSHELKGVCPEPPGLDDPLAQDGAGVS

Turning to `Cc1ccnc2ccc(-c3c(-c4ccc(Cl)cc4)nc(N)c4nnnn34)cc12` [1-39, 6-(4-chlorophenyl)-5-(4-methylquinolin-6-yl)tetrazolo[1,5-a]pyrazin-8-amine], the “A2a @ 1 μM Adenosine (cAMP IC50)” value in experiment [1] is “+++ (partial)”.
With `Cc1cc(-c2c(-c3ccc(F)cc3)nc(N)n3nnnc23)cc(C)n1` [1-28, 8-(2,6-dimethylpyridin-4-yl)-7-(4-fluorophenyl)tetrazolo[1,5-c]pyrimidin-5-amine], the “A2b @ 10 μM Adenosine (cAMP IC50)” value in experiment [2] is reported as “+ (partial)”.
For `Cc1ccnc2ccc(-c3c(-c4cccc(Cl)c4)nc(N)c4nnnn34)cc12` [1-50, 6-(3-chlorophenyl)-5-(4-methylquinolin-6-yl)tetrazolo[1,5-a]pyrazin-8-amine], the “A2a @ 1 μM Adenosine (cAMP IC50)” value in experiment [1] is “+++ (partial)”.
Take `Nc1nc(-c2ccc(F)cc2)c(-c2ccc3ncc(Cl)n3c2)n2nnnc12` [1-23, 5-(3-chloroimidazo[1,2-a]pyridin-6-yl)-6-(4-fluorophenyl)tetrazolo[1,5-a]pyrazin-8-amine]: in experiment [1], the “A2a @ 100 μM Adenosine (cAMP IC50)” value was “++ (partial)”.
As for `Cc1ccnc2ccc(-c3c(-c4ccc(C(=O)N(C)C)cc4)nc(N)c4nnnn34)cc12` [1-40, 4-(8-amino-5-(4-methylquinolin-6-yl)tetrazolo[1,5-a]pyrazin-6-yl)-N,N-dimethylbenzamide], the “A2a @ 1 μM Adenosine (cAMP IC50)” value in experiment [1] was “+++ (partial)”.
`Nc1nc(-c2ccc(F)cc2)c(-c2ccc3ncoc3c2)n2nnnc12` [1-10, 5-(benzo[d]oxazol-6-yl)-6-(4-fluorophenyl)tetrazolo[1,5-a]pyrazin-8-amine]: in experiment [1], the “A2a @ 100 μM Adenosine (cAMP IC50)” value is recorded as “+ (partial)”.
Same read-out and setting: then `Cc1ccnc2ccc(-c3c(-c4ccc(F)cc4)nc(N)c4nnnn34)cc12` [1-6, 6-(4-fluorophenyl)-5-(4-methylquinolin-6-yl)tetrazolo[1,5-a]pyrazin-8-amine], with “++ (partial)”.

Values taken from patent publication US20250122203A1, “ADENOSINE RECEPTOR ANTAGONISTS” (Crossignal Therapeutics, Inc., priority 2021, published 2025).
